Data reported in patent US7144982B2, “Polypeptides with therapeutic activity and methods of use” (University of Minnesota, priority 2000, dated 2006).
Like-named read-outs stand apart in the source and are kept apart here. Ends that are not written are not given here.

Columns and labels:
[1] = system: E. coli J5; test: Bactericidal assay, rough strain E. coli J5; assay type: cell-based; conditions: for LD50 bactericidal activity, Gram-neg. rough J5: Table 4, SC-4 variants
Description: (§1) Pseudomonas aeruginosa type 1 is a clinical, smooth strain isolate serotyped by using the scheme of Homma, Japan. J. Exp. Med. 46, 329–336 (1976) and maintained in the lab by monthly transfer on blood agar plates. E. coli J96, IA2, and H5 are smooth strain, uropathogenic clinical isolates kindly maintained and provided by J. R. Johnson and described in Johnson et al., J. Infect. Disease 173, 920–926 (1996) for J96 and IA2 and in Johnson et al., J. Infect. Disease 173, 746–749 (1996) for H5. J5 is an E. coli rough strain initially referenced by G. R. Siber and discussed in Warren et al., Infect. Immunity 55, 1668–1673 (1987) and is analogous to the smooth strain E. coli 0111:B4 used in the BioWhittaker LAL endotoxin detection and quantitation kit described below. Gram-positive MN8 and MNHO are two patient isolates of Staphylococcus aureus, which were kindly provided by P. M. Schlievert and described in Bohach et al., Rev. Infect. Diseases 11, 75–82 (1989) for MNHO and in Schlievert et al., J. Infect. Diseases 147, 236–242 (1983) for MN8. All cultures are maintained on nutrient agar plates.
(§2) Pyrogen-free solutions were used throughout the assay. Log phase bacteria were obtained by transferring an overnight culture or scraping crystals off −85° C. glycerol stocks of overnight cultures. Bacteria were washed and resuspended in 0.9% sodium chloride with adjustment to an optical density at 650 nm which yields 3×10^8 CFU/ml. Bacteria were then diluted 1:10 in 0.08 M citrate phosphate buffer, pH 7.0 (prepared by mixing 0.08 M citric acid with 0.08 M dibasic sodium phosphate). Bacteria (0.15 ml) were incubated with peptide in a final volume of 1.0 ml of buffer. The assay was done in 17×100 polypropylene tubes in a reciprocal water bath shaker at 37° C. for 30 minutes. Following this 30 minute (min) incubation, 10-fold dilutions were made in 0.9% sodium chloride. Dilutions were done to 10^−4 and 20 μl of each dilution was streaked across an agar plate. Gram-positive organisms were plated on nutrient agar plates containing 2% agar and Gram-negative organisms were plated on MacConkey agar (2%). Plates were incubated overnight at 37° C. and counted the next morning. The dilution containing 10–100 bacteria was counted and the number multiplied by 50 to adjust all counts to the number bacteria killed per milliliter. Peptide concentrations were converted to logarithm base ten and graphed. Bactericidal activity was determined by dose response where LD50 values were determined by best fits of a sigmoidal curve to the dose response data.

[2] = system: E. coli 055:B5 LPS; test: Limulus amoebocyte lysate assay for LPS neutralization; assay type: biochemical; conditions: for drop in LPS neutralizing activity relative to SC-4: SC-3: relative to either SC-4 or SC-5
Description: The ability of synthetic peptides to neutralize endotoxin was detected using the chromogenic QCL-1000 kit from BioWhittaker, Inc. (Walkersville, Md.) as described in their protocol. This method is quantitative for Gram-negative bacterial endotoxin (lipopolysaccharide, LPS). In the Limulus amebocyte lysate (LAL) assay, peptides that are active inhibit the LPS-mediated activation of a proenzyme (Young et al., J. Clin. Invest. 51, 1790–1797 (1972)) whose active form would release p-nitroaniline (pNA) from a colorless synthetic substrate (Ac-Ile-Glu-Ala-Arg-pNA), producing a yellow color (pNA) whose absorption is monitored spectrophotometrically at 405–410 nm. The initial rate of enzyme activation is proportional to the concentration of endotoxin present. The concentration of peptide required to bind to LPS and therefore to inhibit the Limulus amoebocyte lysate driven by 0.04 unit (or 0.01 ng) of E. coli 055:B5 LPS (from SIGMA) was determined by dose response.

[3] = system: Staphylococcus aureus MNHO; test: Bactericidal assay, Gram-positive S. aureus MNHO; assay type: cell-based; conditions: SD about ±30%
Description: as §1, §2

[4] = system: Pseudomonas aeruginosa type 1; test: Bactericidal assay, P. aeruginosa (P.a.); assay type: cell-based; conditions: SD about ±30%; for LD50 bactericidal activity, Gram-neg. smooth P.a.: Table 4, SC-4 variants
Description: as §1, §2

[5] = system: E. coli H5; test: Bactericidal assay, smooth strain E. coli H5; assay type: cell-based; conditions: Table 1, SD about ±30%
Description: as §1, with “Diseases 11, 75–82 (1989) for MNHO and in Schlievert et al., J. Infect. Diseases 147, 236–242 (1983) for MN8. All cultures are maintained on nutrient agar plates.” left out
(§3) Pyrogen-free solutions were used throughout the assay. […] Plates were incubated overnight at 37° C. and counted the next morning. The dilution containing 10–100 bacteria was counted and the number multiplied by 50 to adjust all counts to the number bacteria killed per milliliter. […] Bactericidal activity was determined by dose response where LD50 values were determined by best fits of a sigmoidal curve to the dose response data.

[6] = system: Staphylococcus aureus MN8; test: Bactericidal assay, Gram-positive S. aureus MN8; assay type: cell-based; conditions: Table 1, SD about ±30%
Description: as §1, with “Diseases 11, 75–82 (1989) for MNHO and in Schlievert et al., J. Infect. Diseases 147, 236–242 (1983) for MN8. All cultures are maintained on nutrient agar plates.” left out
as §3

[7] = system: E. coli IA2; test: Bactericidal assay, smooth strain E. coli IA2; assay type: cell-based; conditions: Table 1, SD about ±30%
Description: as §1, with “Diseases 11, 75–82 (1989) for MNHO and in Schlievert et al., J. Infect. Diseases 147, 236–242 (1983) for MN8. All cultures are maintained on nutrient agar plates.” left out
as §3

[8] = system: E. coli J96; assay type: cell-based
Description: as §1
as §2, with “The assay was done in 17×100 polypropylene tubes in a reciprocal water bath shaker at 37° C. for 30 minutes. Following this 30 minute (min) incubation, 10-fold dilutions were made in 0.9% sodium chloride. Dilutions were done to 10^−4 and 20 μl of each dilution was streaked across an agar plate. Gram-positive organisms were plated on nutrient agar plates containing 2% agar and Gram-negative organisms were plated on MacConkey agar (2%).” left out, “Peptide concentrations were converted to logarithm base ten and graphed.” left out

[9] = system: Human red blood cells; assay type: cell-based; conditions: for hemolysis: red cells of human, 1 h
Procedure: Human red blood cells were washed three times using phosphate buffered saline (PBS: 35 mM phosphate buffer, 0.15 M NaCl, pH 7.0) prior to performing the assay. One hundred μL of human red blood cells suspended in 0.4% (v/v) PBS was placed in eppendorf tubes, and 100 μL of serially diluted peptides in PBS was added (peptide concentration ranged from 1 μM to 100 μM). Tubes were incubated for 1 hr at 37° C. and centrifuged at 1000 g for 5 min. One hundred μL aliquots of the supernatant was then transferred to eppendorf tubes, and hemolysis was measured by absorbance at 414 nm. Zero percentage hemolysis and 100% hemolysis were determined in PBS and in 1% Triton-X 100, respectively. The hemolysis percentage was calculated using the following formula: % hemolysis=[(A414 in the peptide solution−A414 in PBS)/(A414 in 1% Triton-X 100−A414 in PBS)]×100.

[10] = system: bacteria; conditions: Alvarez-Bravo et al. 1995; cited from earlier work
[11] = Table 4, SC-4 variants, SD about ±30%, read-out: LPS neutralization IC50
[12] = read-out: IC50 LPS neutralization

Substance | LD50 bactericidal activity, Gram-neg. rough J5 ([1]; SD about ±30%) | IC50 [2, 11] | LD50 bactericidal activity, Gram-positive MNHO ([3]; Table 4, SC-4 variants) | LD50 bactericidal activity, Gram-neg. smooth P.a. [4] | hemolysis ([9]; 1e-4 M) | other results
MKLFKRHLKWKIIV [SC-403, M K L F K R H L K W K I I V-NH2] | 0.002 10^−6 M | 6 µM | 0.4 10^−6 M | 0.05 10^−6 M |  | 
BG-22: peptide 28 mer having the amino acid sequence from the β-sheet domain of bactericidal/permeability increasing (B/PI) protein (residues 82–108) (NANIKISGKWKAQKRFLKMSGNFDLSI; UniProt P17213 113-139, looked up, fragment) [reference compound] |  |  |  |  |  | LD50 bactericidal activity, Gram neg. smooth H5 [5]: 0.71 10^−6 M; LD50 bactericidal activity, Gram-positive MN8 [6]: 0.5 10^−6 M; LD50 bactericidal activity, Gram neg. rough J5 ([1]; Table 1, E. coli J5, SD about ±30%): 0.09 10^−6 M; IC50 ([2]; Table 1, SD about ±30%, read-out: LPS effect, IC50 for neutralization of LPS): 5 µM; LD50 bactericidal activity, Gram neg. smooth IA2 [7]: 0.32 10^−6 M; LD50 bactericidal activity, Gram-positive MNHO ([3]; Table 1, S. aureus MNHO): 0.63 10^−6 M; LD50 bactericidal activity, Gram neg. smooth J96 ([8]; Table 1, E. coli J96, SD about ±30%): 0.52 10^−6 M; LD50 bactericidal activity, Gram neg. smooth P.a. ([4]; Table 1, P. aeruginosa): 0.05 10^−6 M
KIIVKLNDGREL-NH2 [SC-7, KIIVKLNDGREL] |  |  |  |  | ~15% | 
X L F K R H L K W K I I-NH2 [SC-404] | 0.004 10^−6 M | 7 µM | 1 10^−6 M | 0.22 10^−6 M |  | drop in LPS neutralizing activity relative to SC-4 [2]: about 3 fold
K L F K K H L K W K I I-NH2 [SC-408] | 0.003 10^−6 M | 1000 µM | 2 10^−6 M | 0.07 10^−6 M |  | LPS neutralization in words [2]: does not affect LPS binding; drop in LPS neutralizing activity relative to SC-4 [2]: about 500 fold
ANIKLSVQMKLFKRHLKWKIIVKLNDGRELSLD-NH2 [βpep-25, reference compound] |  |  |  |  | about 5% | 
K L F K R H L K W X I I-NH2 [SC-407] | 0.007 10^−6 M | 3 µM | 1 10^−6 M | 0.05 10^−6 M |  | LPS neutralization in words [2]: essentially no affect
QMKLFKRHLKWK [SC-401, Q M K L F K R H L K W K-NH2] | 0.004 10^−6 M |  | XXX (XXX means not active at concentrations below 1 × 10^−5 M.) | 0.06 10^−6 M |  | drop in LPS neutralizing activity relative to SC-3 [2]: 5 fold; drop in LPS neutralizing activity relative to SC-4 [2]: 60 fold; IC50 [2, 12]: 126 µM
K L F K R H L X W K I I-NH2 [SC-406] | 0.005 10^−6 M | 3 µM | 2 10^−6 M | 0.05 10^−6 M |  | LPS neutralization in words [2]: essentially no affect
VKLNDGRELSLD-NH2 [SC-8, VKLNDGRELSLD] |  |  |  |  | ~10% | 
KLKLLLLLKLK-NH2 [antibacterial peptide of the literature forming channels in bacterial membranes] |  |  |  |  |  | effective antibacterial concentration [10]: 100 µM
K L F K X H L K W K I I-NH2 [SC-409] | 0.001 10^−6 M | 3 µM | 0.3 10^−6 M | 0.22 10^−6 M |  | LPS neutralization in words [2]: nearly full activity
K L F X R H L K W K I I-NH2 [SC-405] | 0.006 10^−6 M | 7 µM | 0.4 10^−6 M | 0.17 10^−6 M |  | drop in LPS neutralizing activity relative to SC-4 [2]: about 3 fold
KRHLKWKIIVKL-NH2 [SC-5, KRHLKWKIIVKL] |  |  |  |  | around 70% | hemolysis ([9]; 1e-6 M): 15-30%
KLFKRHLKWKII-NH2 [SC-4, KLFKRHLKWKII] |  |  |  |  | ~10% | LD50 ([1]; against J5 (Gram-negative bacteria)): 3 nM; concentration below which not hemolytic [9]: ≥ 10^−4 M; LD50 ([8]; J96): 250 nM
MKLFKRHLKWKI [SC-402, M K L F K R H L K W K I-NH2] | 0.005 10^−6 M | 25 µM | 6 10^−6 M | 0.07 10^−6 M |  | drop in LPS neutralizing activity relative to SC-4 [2]: 12 fold; IC50 [2, 12]: 25 µM
VQMKLFKRHLKW-NH2 [SC-3, VQMKLFKRHLKW] |  |  |  |  | ~10% | 
KLSVQMKLFKRH-NH2 [SC-2, KLSVQMKLFKRH] |  |  |  |  | ~15% | 
ANIKLSVQMKLF-NH2 [SC-1, ANIKLSVQMKLF] |  |  |  |  | around 70% | hemolysis ([9]; 1e-6 M): 15-30%
LKWKIIVKLNDG-NH2 [SC-6, LKWKIIVKLNDG] |  |  |  |  | ~15% | 
